From ChEMBL document CHEMBL4419176, “Compositions and methods for treating cancer” (2017)
The source made the active and inactive calls. The calls are words filed in the database; no cut-off is given here.

Assays:
[1] = molecular target: Diacylglycerol kinase alpha (Homo sapiens) (UniProt P23743); assay: Inhibition of FLAG-tagged DGKa (unknown origin) using lipids and [gamma-32P]-ATP incubated for 15 mins by scintillation counting method
[2] = molecular target: Diacylglycerol kinase alpha (Homo sapiens) (UniProt P23743); assay: Inhibition of DGKa in human U251 cells assessed as reduction in p53 phosphorylation at S15 residues at 15 uM incubated for 24 hrs by dot-blot proteomics assay relative to baseline; format: cell-based
[3] = system: A-375; assay: Antitumor activity against human A375 cells xenografted in athymic nu/nu mouse assessed as reduction in tumor volume at 50 mg/kg dosed via daily oral gavage starting 6 days post-tumor implantation and measured up to 50 days post tumor implantation; format: functional, organism-based
[4] = molecular target: Diacylglycerol kinase alpha (Homo sapiens) (UniProt P23743); assay: Inhibition of DGKa in human G88 cells assessed as decrease in RhoA expression by ELISA; format: cell-based
[5] = system: U-251; assay: Synergistic cytotoxicity in human U251 cells assessed as reduction in cell viability at 7.5 uM in presence of 50 uM TMZ by alamar blue dye based assay; format: functional
[6] = molecular target: Diacylglycerol kinase alpha (Homo sapiens) (UniProt P23743); assay: Inhibition of DGKa in human VMM39 cells assessed as reduction in p53 phosphorylation at S15 residues at 12.5 to 17.5 uM incubated for 24 hrs by immunoblot analysis; format: cell-based
[7] = system: GL261; assay: Cytotoxicity in mouse GL261 cells assessed as reduction in cell viability at 10 uM in presence of 10 uM chloroquine incubated for 2 to 4 days by Trypan blue exclusion based hemocytometry; format: functional
[8] = Selectivity ratio of cytotoxicity against human mesenchymal GBM cells to cytotoxicity against human non-mesenchymal cells at 1 to 30 uM; format: functional
[9] = species on record: Homo sapiens; assay: Cytotoxicity in human GB816 cells with TNFalpha-induced proneural-to- mesenchymal transition at 8 uM; format: functional, cell-based
[10] = molecular target: Diacylglycerol kinase alpha (Homo sapiens) (UniProt P23743); assay: Inhibition of DGKa in human U251 cells assessed as HSP60 protein level at 15 uM incubated for 24 hrs by dot-blot proteomics assay relative to baseline; format: cell-based; set-up: scale not given: the % may be the effect or the level left
[11] = molecular target: Diacylglycerol kinase alpha (Homo sapiens) (UniProt P23743); assay: Inhibition of DGKa in human JWL578 cells transfected with mTOR promoter assessed as decrease in mTOR promoter activity at 20 uM incubated for 36 to 48 hrs by luciferase reporter gene assay; format: cell-based
[12] = system: U-251; assay: Induction of apoptosis in human U251 cells at 10 to 20 uM in presence of apoptosis inhibitor ZVAD-FMK by Annexin V-PE and 7-AAD staining based flow cytometry; format: functional, cell-based
[13] = system: VMM39; assay: Antitumor activity against human VMM39 cells xenografted in athymic nu/nu mouse assessed as induction of delay in tumor formation at 50 mg/kg dosed via daily oral gavage; format: functional, organism-based
[14] = species on record: Homo sapiens; assay: Cytotoxicity in human GB464 cells with TNFalpha-induced proneural-to- mesenchymal transition at 8 uM; format: functional, cell-based
[15] = system: U-251; assay: Cytotoxicity in human U251 cells assessed as reduction in cell viability at 10 uM in presence of phosphatidic acid incubated for 2 to 4 days by Trypan blue exclusion based hemocytometry; format: functional
[16] = system: VMM39; assay: Induction of apoptosis in human VMM39 cells at 10 to 20 uM in presence of apoptosis inhibitor ZVAD-FMK by Annexin V-PE and 7-AAD staining based flow cytometry; format: functional, cell-based
[17] = system: Astrocyte; assay: Cytotoxicity against immortalized astrocytes (unknown origin) assessed as reduction in cell viability at >20 uM incubated for 2 to 4 days by Trypan blue exclusion based hemocytometry
[18] = molecular target: Diacylglycerol kinase alpha (Homo sapiens) (UniProt P23743); assay: Inhibition of DGKa in human U251 cells assessed as reduction in P70 S6K phosphorylation at T389/T421 residues at 15 uM incubated for 24 hrs by dot-blot proteomics assay relative to baseline; format: cell-based
[19] = system: A549; assay: Cytotoxicity in human A549 cells with TNFalpha-induced epithelial-mesenchymal transition at 15 uM; format: functional, cell-based
[20] = species on record: Homo sapiens; assay: Cytotoxicity in G34 cells (unknown origin) assessed as reduction in cell viability at 10 uM in presence of 5 uM chloroquine incubated for 2 to 4 days by Trypan blue exclusion based hemocytometry; format: functional
[21] = molecular target: Diacylglycerol kinase alpha (Homo sapiens) (UniProt P23743); assay: Inhibition of DGKa in human G2 cells assessed as decrease in GGTase-1 by measuring increase in unprenylated ras-related protein RaplA expression by immunoblot analysis; format: cell-based
[22] = Synergistic cytotoxicity in human G2 cells assessed as combination index at 2 uM in presence of imatinib incubated for 5 days; format: functional
[23] = molecular target: Diacylglycerol kinase alpha (Homo sapiens) (UniProt P23743); assay: Inhibition of DGKa in human G2 cells assessed as decrease in RhoA expression by ELISA; format: cell-based
[24] = molecular target: Diacylglycerol kinase alpha (Homo sapiens) (UniProt P23743); assay: Inhibition of DGKa in human U251 cells transfected with HIF1a promoter assessed as decrease in HIF1a promoter activity at 20 uM incubated for 36 to 48 hrs by luciferase reporter gene assay; format: cell-based
[25] = species on record: Homo sapiens; assay: Cytotoxicity in G528 cells (unknown origin) assessed as reduction in cell viability at 10 to 15 uM in presence of 10 uM chloroquine incubated for 2 to 4 days by Trypan blue exclusion based hemocytometry; format: functional
[26] = system: U-251; assay: Antitumor activity against human U251 cells xenografted in athymic nu/nu mouse assessed as increase in mouse survival at 50 mg/kg dosed via daily oral gavage starting 7 days post-tumor implantation and measured up to 50 days post tumor implantation; format: functional, organism-based
[27] = molecular target: Diacylglycerol kinase alpha (Homo sapiens) (UniProt P23743); assay: Inhibition of DGKa in human G2 cells assessed as decrease in NF-kappaB expression under 4 Gy irradiation by luciferase reporter gene assay; format: cell-based
[28] = system: VMM39; assay: Synergistic cytotoxicity in human VMM39 cells assessed as reduction in cell viability at 7.5 uM in presence of 50 uM TMZ by alamar blue dye based assay; format: functional
[29] = Cytotoxicity in human JWL578 cells assessed as reduction in cell viability incubated for 2 to 4 days by Trypan blue exclusion based hemocytometry; format: functional
[30] = system: U-251; assay: Cytotoxicity in human U251 cells assessed as reduction in cell viability at 10 uM in presence of 20 uM chloroquine incubated for 2 to 4 days by Trypan blue exclusion based hemocytometry; format: functional
[31] = system: B16; assay: Cytotoxicity in mouse B16 cells assessed as reduction in cell viability at 10 uM in presence of 5 uM chloroquine incubated for 2 to 4 days by Trypan blue exclusion based hemocytometry; format: functional
[32] = system: VMM39; assay: Antitumor activity against human VMM39 cells xenografted in athymic nu/nu mouse assessed as induction of delay in tumor formation at 10 mg/kg dosed via daily oral gavage; format: functional, organism-based
[33] = system: VMM39; assay: Induction of apoptosis in human VMM39 cells at 10 to 20 uM by Annexin V-PE and 7-AAD staining based flow cytometry; format: functional, cell-based
[34] = system: GL261; assay: Antitumor activity against mouse GL261 cells implanted in mouse syngeneic immunocompetent tumor model assessed as reduction in tumor size at 50 mg/kg dosed via daily oral gavage starting 6 days post-tumor implantation and measured up to 100 days post tumor implantation by magnetic resonance imaging analysis; format: functional, organism-based
[35] = system: U-251; assay: Cytotoxicity in human U251 cells assessed as reduction in cell viability at 2.5 to 17.5 uM by alamar blue dye based assay; format: functional
[36] = system: U-251; assay: Induction of autophagy in human U251 cells assessed as LC3-II accumulation at 10 uM in presence of 20 uM chloroquine by immunoblot analysis; format: functional, cell-based
[37] = system: VMM39; assay: Cytotoxicity in human VMM39 cells assessed as reduction in cell viability at 2.5 to 22.5 uM by alamar blue dye based assay; format: functional
[38] = species on record: Homo sapiens; assay: Increase in PDGFRA expression in human G2 cells at 3 uM by immunoblot analysis; format: functional, cell-based
[39] = molecular target: Diacylglycerol kinase alpha (Homo sapiens) (UniProt P23743); assay: Inhibition of DGKa in human U251 cells transfected with mTOR promoter assessed as decrease in mTOR promoter activity at 20 uM incubated for 36 to 48 hrs by luciferase reporter gene assay; format: cell-based
[40] = system: Astrocyte; assay: Cytotoxicity against immortalized astrocytes (unknown origin) assessed as reduction in cell viability at 10 to 15 uM in presence of 10 uM chloroquine incubated for 2 to 4 days by Trypan blue exclusion based hemocytometry
[41] = system: VMM39; assay: Cytotoxicity in human VMM39 cells assessed as reduction in cell viability at 15 uM in presence of 10 uM chloroquine incubated for 2 to 4 days by Trypan blue exclusion based hemocytometry; format: functional
[42] = species on record: Homo sapiens; assay: Cytotoxicity in human JWL578 cells assessed as reduction in cell viability at 10 uM in presence of phosphatidic acid incubated for 2 to 4 days by Trypan blue exclusion based hemocytometry; format: functional
[43] = system: Homo sapiens; assay: Antitumor activity against human G2 cells xenografted in orally dosed mouse assessed as increase in median mouse survival; format: functional, organism-based
[44] = species on record: Homo sapiens; assay: Cytotoxicity in human MPanc96 cells with TNFalpha-induced epithelial-mesenchymal transition at 15 uM; format: functional, cell-based
[45] = Synergistic cytotoxicity in human G88 cells assessed as combination index at 2 uM in presence of imatinib incubated for 5 days; format: functional
[46] = molecular target: Diacylglycerol kinase alpha (Homo sapiens) (UniProt P23743); assay: Inhibition of DGKa in human G88 cells assessed as decrease in GGTase-1 by measuring increase in unprenylated ras-related protein RaplA expression by immunoblot analysis; format: cell-based
[47] = molecular target: Diacylglycerol kinase alpha (Homo sapiens) (UniProt P23743); assay: Inhibition of DGKa in human U251 cells assessed as reduction in p53 phosphorylation at S15 residues at 12.5 to 17.5 uM incubated for 24 hrs by immunoblot analysis; format: cell-based
[48] = system: A-375; assay: Antitumor activity against human A375 cells xenografted in athymic nu/nu mouse assessed as increase in mouse survival at 50 mg/kg dosed via daily oral gavage starting 6 days post-tumor implantation and measured up to 50 days post tumor implantation; format: functional, organism-based
[49] = system: U-251; assay: Induction of apoptosis in human U251 cells at 10 to 20 uM by Annexin V-PE and 7-AAD staining based flow cytometry; format: functional, cell-based
[50] = system: GL261; assay: Antitumor activity against mouse GL261 cells implanted in mouse syngeneic immunocompetent tumor model assessed as reduction in tumor volume at 100 mg/kg dosed via daily oral gavage starting 6 days post-tumor implantation and measured up to 100 days post tumor implantation; format: functional, organism-based
[51] = species on record: Homo sapiens; assay: Increase in PDGFRA expression in human G88 cells at 3 uM by immunoblot analysis; format: functional, cell-based
[52] = system: U-251; assay: Induction of autophagy in human U251 cells assessed as LC3-II accumulation at 10 to 20 uM by immunoblot analysis; format: functional, cell-based
[53] = molecular target: Diacylglycerol kinase alpha (Homo sapiens) (UniProt P23743); assay: Inhibition of DGKa in human G88 cells assessed as decrease in NF-kappaB expression under 4 Gy irradiation by luciferase reporter gene assay; format: cell-based
[54] = system: U-251; assay: Cytotoxicity in human U251 cells assessed as reduction in cell viability at 25 to 75 uM by alamar blue dye based assay; format: functional
[55] = system: VMM39; assay: Cytotoxicity in human VMM39 cells assessed as reduction in cell viability at 25 to 150 uM by alamar blue dye based assay; format: functional

Sequence of Diacylglycerol kinase alpha (Homo sapiens) (P23743 whole entry): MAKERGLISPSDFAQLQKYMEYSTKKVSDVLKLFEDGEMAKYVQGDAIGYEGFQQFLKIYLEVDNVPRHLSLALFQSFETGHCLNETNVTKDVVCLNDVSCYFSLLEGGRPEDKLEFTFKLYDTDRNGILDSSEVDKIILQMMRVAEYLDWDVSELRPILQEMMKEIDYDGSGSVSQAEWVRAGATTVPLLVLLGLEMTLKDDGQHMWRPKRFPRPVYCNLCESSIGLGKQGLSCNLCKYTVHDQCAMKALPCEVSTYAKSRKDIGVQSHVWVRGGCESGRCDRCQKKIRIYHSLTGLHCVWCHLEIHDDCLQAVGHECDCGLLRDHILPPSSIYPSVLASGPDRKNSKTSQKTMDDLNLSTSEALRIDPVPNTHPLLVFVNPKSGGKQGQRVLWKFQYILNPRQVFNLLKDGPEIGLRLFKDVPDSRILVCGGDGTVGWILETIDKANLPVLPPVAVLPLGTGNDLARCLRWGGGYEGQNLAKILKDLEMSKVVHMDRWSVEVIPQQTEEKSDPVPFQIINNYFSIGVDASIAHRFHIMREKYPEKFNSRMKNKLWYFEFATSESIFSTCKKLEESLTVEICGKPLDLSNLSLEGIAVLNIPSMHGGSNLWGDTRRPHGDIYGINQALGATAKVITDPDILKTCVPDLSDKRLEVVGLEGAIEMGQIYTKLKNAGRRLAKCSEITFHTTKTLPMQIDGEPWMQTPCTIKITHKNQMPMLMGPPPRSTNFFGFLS

Cc1nc2sccn2c(=O)c1CCN1CCC(=C(c2ccccc2)c2ccc(F)cc2)CC1
inhibition [1]: Dose-dependent effect

Cc1nc2sccn2c(=O)c1CCN1CCC(=C(c2ccc(F)cc2)c2ccc(F)cc2)CC1 [RITANSERIN]
inhibition [2]: Active | Activity [3]: Active | inhibition [4]: Active | Activity [5]: <=90% | inhibition [6]: Active | Activity [7]: Active | Ratio [8]: 3 - 4 | Activity [9]: Active | Activity [10]: 10% | inhibition [11]: Active | Activity [12]: Active | Activity [13]: Active | Activity [14]: Active | Activity [15]: inactive | Activity [16]: Active | Activity [17]: Non-Toxic | inhibition [18]: Active | Activity [19]: Active | Activity [20]: Active | inhibition [21]: Active | CI [22]: 0.24 | inhibition [23]: Active | inhibition [24]: Active | Activity [25]: Active | Activity [26]: Active | inhibition [27]: Active | Activity [28]: <=90% | IC50 [29]: 5 to 10 µM | Activity [30]: Active | Activity [31]: Active | Activity [32]: inactive | Activity [33]: Active | Activity [34]: Active | Activity [35]: inactive | Activity [36]: Active | Activity [37]: inactive | Activity [38]: Active | inhibition [39]: Active | Activity [40]: Non-Toxic | Activity [41]: Active | Activity [42]: inactive | Activity [43]: Active | Activity [44]: Active | CI [45]: 0.25 | inhibition [46]: Active | inhibition [47]: Active | Activity [48]: Active | Activity [49]: Active | Activity [50]: Active | Activity [51]: Active | inhibition [1]: Dose-dependent effect | Activity [52]: Active | inhibition [53]: Active

Cn1nnc2c(C(N)=O)ncn2c1=O
Activity [54]: inactive | Activity [55]: inactive
